Entries after “also recorded” stand apart in the source; their conditions may differ.

The results in this text go back to patent publication US20250374924A1, “ACTIVE MOLECULES IN THE SECRETOME OF PSEUDOMONAS PROTEGENS PBL3” (Board of Regents of the University of Nebraska, priority 2024, published 2025).

Test [1] deals with rifampicin-resistant strain of B. glumae. Briefly: Antimicrobial assay in planta: rice panicles pre-treated with compound, then spray-inoculated with B. glumae (BPB symptoms, bacterial populations). In kind it is in vivo, Burkholderia glumae. The settings on record: 3 dpi; for reduction of B. glumae populations in rice panicles: pre-treated with 500 μg/mL, vs water pre-treated inoculated panicles, FIG. 4B; for BPB symptoms in rice panicles (in words): rice Kitaake panicles pre-treated with 500 μg/mL, water pre-treated, inoculated panicles exhibited the highest levels of BPB symptoms, FIG. 4A.

Another test deals with Burkholderia glumae. The test can be described thus: Antimicrobial assay in vitro: growth of B. glumae in KB broth (OD600 after 18 hours). The settings on record: for minimum inhibitory concentration needed for reduction of B. glumae growth in vitro: concentrations tested 1000, 100, 10 μg/mL; for growth of B. glumae (in words): concentrations ranging from 10 μg/mL to 1000 μg/mL.

Setting [2] is: at the three concentrations 10 μg/mL, 100 μg/mL, 1000 μg/mL.
The mark [3] stands for this setting: compound at 100 μg/mL, 18 hours, FIG. 2.
[4] abbreviates: compound at 1000 μg/mL, 18 hours, FIG. 2.
The mark [5] stands for this setting: at a concentration of 1000 μg/mL.
Where [6] appears, read: other concentrations than 1000 μg/mL (100 μg/mL, 10 μg/mL), FIG. 2.

Method for Burkholderia glumae: A single colony of P. protegens PBL3 was grown in 1×M9 minimal media (Sigma Aldrich, St. Louis, MO) supplemented with filter-sterilized 56 mM Myo-inositol, 2 mM MgSO4·7H2O, and 0.2 mM CaCl2). The culture was incubated at 25° C. with constant agitation (210 rpm) for 60 hours until reaching an optical density at 600 nm (OD600) of 0.5. Bacterial culture was centrifuged at 10,000 rpm for 10 minutes. The bacterial pellet was discarded and the supernatant, containing the secreted fraction (secretome) was transferred to a new tube and filter-sterilized using a 0.22 μm filter (Fisher Scientific, Ireland) to eliminate any residual bacterial suspension.
Orfamide A, orfamide B, pyrrolnitrin, and pyoluteorin (Cayman Chemical Company, Ann Arbor, MI), and pyochelin (Santa Cruz Biotechnology, Dallas, TX), were diluted in 5% dimethyl sulfoxide (DMSO) at 1000 μg/mL and further diluted to 100 μg/mL and 10 μg/mL. Similarly, pyoverdine (Sigma-Aldrich, Saint Louis, MO) was diluted in water, whereas 2,4-DAPG (ThermoFisher Scientific, Poland) and fengycin (Sigma-Aldrich, Saint Louis, MO) were diluted in 5% ethanol at 1000 μg/mL and further diluted to 100 μg/mL and 10 μg/mL.
Burkholderia glumae grown on KB was scraped from the agar and resuspended in sterile water to a final OD600 of 0.2. One hundred microliters of B. glumae was added to 200 μL of KB broth to make a master mix. The master mix was supplemented with either water, 5% DMSO, or 5% ethanol, used as control. Alternatively, master mix was supplemented with either P. protegens PBL3 secretome or different compounds (orfamide A, orfamide B, fengycin, pyrrolnitrin, pyochelin, pyoverdine, 2,4-DAPG, or pyoluteorin), each at three concentrations of 1000 μg/mL, 100 μg/mL, and 10 μg/mL, or combination of compounds. Two compound combinations were chosen, the first combination consisted of 2,4-DAPG and pyoluteorin at final concentrations of 100 μg/mL and 10 μg/mL, respectively. The second combination consisted of 2,4-DAPG and pyoluteorin, each at concentration of 10 μg/mL. […] The growth of B. glumae was evaluated by measuring the OD600 using a spectrophotometer (Genesys 140, Thermoscientific, Madison, WI, USA). Each experiment was replicated three times.

In the case of pyoverdine, in test [1], the “reduction of B. glumae populations in rice panicles” value (from here on “reduction of B. glumae populations”) is “No changes in B. glumae populations”. Besides, in the test on Burkholderia glumae (setting [2]), the “effect on growth of B. glumae (in words)” value is “inhibits B. glumae”. Besides, the “reduction of growth of B. glumae” value in the test with Burkholderia glumae (setting [3]) and in the test on Burkholderia glumae (setting [4]) was approximately 80% in each case. The “minimum inhibitory concentration needed for reduction of B. glumae growth in vitro” value with Burkholderia glumae turned out to be 100 µg/mL.

Consider fengycin, for which the “growth of B. glumae (in words)” value in the test on Burkholderia glumae (FIG. 2) is given as “did not reduce the growth of B. glumae”.

As to `O=[N+]([O-])c1c(Cl)cccc1-c1c[nH]cc1Cl` [pyrrolnitrin], the “effect on growth of B. glumae (in words)” value with Burkholderia glumae (setting [5]) was “inhibits B. glumae”; in the test on Burkholderia glumae (setting [6]) it was “did not have any effect”. Moreover, in the test with Burkholderia glumae (setting [4]), the “reduction of growth of B. glumae” value is listed as 25%. Moreover, in the test with Burkholderia glumae, the “minimum inhibitory concentration needed for reduction of B. glumae growth in vitro” value came out at 1000 µg/mL.

Consider `CN1[C@@H]([C@H]2CSC(c3ccccc3O)=N2)SC[C@H]1C(=O)O` [pyochelin], for which, in test [1], the “reduction of B. glumae populations” value is “No changes in B. glumae populations” and the “BPB symptoms in rice panicles (in words)” value is on record as “showed reduction of symptoms”. Further, the “effect on growth of B. glumae (in words)” value in the test on Burkholderia glumae (setting [5]) is recorded as “inhibits B. glumae”. In addition, the “reduction of growth of B. glumae” value in the test on Burkholderia glumae (setting [4]) came to 40%. The “minimum inhibitory concentration needed for reduction of B. glumae growth in vitro” value with Burkholderia glumae was found to be 1000 µg/mL. Moreover, the “effect on growth of B. glumae (in words)” value in the test on Burkholderia glumae (setting [6]) was “did not have any effect”.

In the case of `CC(=O)c1c(O)cc(O)c(C(C)=O)c1O` [2,4-DAPG, 2,4-diacetylphloroglucinol], in test [1], the “reduction of B. glumae populations” value is reported as 1.17 logs and the “BPB symptoms in rice panicles (in words)” value is given as “showed reduction of symptoms”. Besides, the “reduction in B. glumae growth” value with Burkholderia glumae (2,4-DAPG at 100 μg/mL alone or with pyoluteorin at 10 μg/mL, 18 hours, FIG. 7) is reported as 45%. The “effect on growth of B. glumae (in words)” value with Burkholderia glumae (setting [2]) is “inhibits B. glumae; also recorded: significantly reduced the growth of B. glumae”. For the same compound, the “reduction of growth of B. glumae” value in the test on Burkholderia glumae (setting [4]) was determined as 93%. The “minimum inhibitory concentration needed for reduction of B. glumae growth in vitro” value with Burkholderia glumae is 100 µg/mL.

For the compound `O=C(c1cc(Cl)c(Cl)[nH]1)c1c(O)cccc1O` [pyoluteorin], in test [1], the “reduction of B. glumae populations” value worked out at 1.5 logs and the “BPB symptoms in rice panicles (in words)” value is listed as “showed reduction of symptoms”. Also, the “effect on growth of B. glumae (in words)” value with Burkholderia glumae (setting [2]) is “inhibits B. glumae; also recorded: significantly reduced the growth of B. glumae”. Also, in the test on Burkholderia glumae (setting [3]), the “reduction of growth of B. glumae” value is 97%. Also, the “reduction of growth of B. glumae” value in the test on Burkholderia glumae (setting [4]) is 97%. Also, the “minimum inhibitory concentration needed for reduction of B. glumae growth in vitro” value with Burkholderia glumae was 100 µg/mL.

On to Orfamide A, for which, in the test with Burkholderia glumae (FIG. 2), the “growth of B. glumae (in words)” value was “did not reduce the growth of B. glumae”.

Take orfamide B: in the test on Burkholderia glumae (FIG. 2), the “growth of B. glumae (in words)” value was “did not reduce the growth of B. glumae”.
